Data reported in the supplement of paper PMC5770543.
± gives the standard deviation.

Experiments:
[1] = target: Toxoplasma gondii RH tachyzoites; test: EC50 growth inhibition (48 h luciferase)
[2] = test system: Plasmodium falciparum 3D7; test: EC50 growth inhibition (60 h, SYBR Green); details: stage: ring-stage start
[3] = test system: Toxoplasma gondii RH tachyzoites; test: % growth inhibition vs DMSO (48 h luciferase); higher = more inhibition; details: 10 µM
[4] = test system: Plasmodium falciparum 3D7; test: % inhibition of schizont-to-ring transition vs DMSO; higher = more inhibition
Outline: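 Tightly synchronised P. falciparum schizonts (about 40–42 hours post-invasion, 1% parasitemia, 2.5% hematocrit, AlbuMAX-supplemented RPMI) were exposed to compound at 1, 3 or 10 µM, with vehicle and positive controls. Cells were glutaraldehyde-fixed, Triton-permeabilised, stained with Hoechst 33342 and counted by flow cytometry (at least 100,000 events). Schizont-to-ring transition inhibition is new ring formation relative to vehicle controls, averaged over three experiments.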
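For % growth inhibition vs DMSO (48 h luciferase) in this document: tested in triplicate wells of 96-well plates on confluent HFF monolayers, with 1% DMSO wells as negative control in four replicates.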

| Structure (SMILES) | EC50 growth inhibition [1] | EC50 growth inhibition [2] | % growth inhibition [3] | % inhibition of schizont-to-ring transition ([4]; 1 µM) | % inhibition of schizont-to-ring transition ([4]; 3 µM) | % inhibition of schizont-to-ring transition ([4]; 10 µM) |
| --- | --- | --- | --- | --- | --- | --- |
| O=C(NC(c1ccccc1)c1ccc2cccnc2c1O)c1ccccc1 (stereo not drawn) | 770 nM | 3660 nM | 99.71 ± 0.23% | 13.5% | 35.6% | 53.7% |
| OC1=C2C(=Nc3ccccc3SC2c2ccc(Br)cc2)c2ccccc21 (stereo not drawn) | 803 nM | 588 nM | 99.19 ± 0.75% | 19.5% | 33.4% | 45.5% |
| Cc1cc(Nc2cccc(F)c2)nc(NCc2ccccc2)n1 | 879 nM | 149 nM | 97.33 ± 0.9% | 43.1% | 60.2% | 70.5% |
| CCOc1ccc(-c2nonc2NC(=O)c2cccc(C)c2)cc1OCC | 1620 nM | 374 nM | 96.5 ± 1.9% | 81.4% | 80% | 78.5% |
| CCCCCn1c(=N)n(CC(O)COc2cccc(C)c2)c2ccccc21 (stereo not drawn) | 1770 nM | 1940 nM | 99.47 ± 0.32% | 8.72% | 13.3% | 61.9% |
| CCCCCCc1cc(O)c2c3c(c(=O)oc2c1)CCC(C)C3 (stereo not drawn) | 471 nM | 3410 nM | 99.37 ± 0.72% | 18.6% | 34.9% | 52.4% |
| Nc1ccc(-c2nc3cc(Oc4ccc(Oc5ccc6[nH]c(-c7ccc(N)cc7)nc6c5)cc4)ccc3[nH]2)cc1 | 1610 nM | 253 nM | 100.27 ± 0.078% | 23.6% | 43.2% | 60.7% |
| c1ccc2c(NCCc3c[nH]c4ccccc34)c3ccccc3nc2c1 | 170 nM | 201 nM | 100.1 ± 0.54% | 57.4% | 60.8% | 71.5% |
| COc1ccc(C2NCCc3c2[nH]c2ccccc32)cc1CN1CCN(c2ccc(F)cc2)CC1 (stereo not drawn) | 4880 nM | 468 nM | 99.96 ± 0.41% | 26.9% | 62.9% | 77.3% |
| O=C(Nc1ccc(N2CCCCC2)c(Cl)c1)c1ccc(Br)o1 | 7400 nM | 812 nM | 82.4 ± 6.4% | 29.7% | 39.7% | 53% |
| CCN(CC)CCn1c(=N)n(CC(O)c2ccc(Cl)c(Cl)c2)c2ccccc21 (stereo not drawn) | 1310 nM | 267 nM | 85.7 ± 6.1% | 51% | 73.3% | 78.2% |
| Clc1cc(Br)ccc1-c1ccc(CNCC2CCNCC2)o1 | 207 nM | 763 nM | 99.53 ± 0.77% | 46% | 50.9% | 74.4% |
| FC(F)(F)c1cccc(Nc2nc3ccccc3nc2Nc2cccc(C(F)(F)F)c2)c1 | 46.4 nM | 6400 nM | 99.49 ± 0.16% | < 0% | 15.6% | 42.7% |
| COc1cc(C(=O)ON=C(N)Cc2cccc3ccccc23)cc(OC)c1OC | 836 nM | 218 nM | 99.01 ± 0.4% | 7.84% | 57% | 73.7% |
| COc1cccc(Nc2nc(NCCO)c3ccccc3n2)c1 | 1090 nM | 456 nM | 97.5 ± 1.6% | 39.7% | 60.8% | 65.6% |
| Oc1ccc2ccccc2c1CNc1nc2ccccc2[nH]1 | 430 nM | 2930 nM | 95.1 ± 1.9% | 41.7% | 57.8% | 70.5% |
| COc1cc2c(cc1OC)C1=NNC(=O)C1=NC(C)(C)C2 | 3260 nM | 1790 nM | 80.4 ± 1.2% | 14.2% | 25.3% | 63.4% |

| Structure (SMILES) | EC50 growth inhibition [1] | EC50 growth inhibition [2] | % growth inhibition [3] | % inhibition of schizont-to-ring transition ([4]; 1 µM) | % inhibition of schizont-to-ring transition ([4]; 3 µM) | % inhibition of schizont-to-ring transition ([4]; 10 µM) |
| --- | --- | --- | --- | --- | --- | --- |
| O=C(Nc1ccc(F)c(Cl)c1)Nc1ccc(Cl)c(Cl)c1 | 346 nM | 3980 nM | 100.1 ± 0.21% | 36.5% | 55.4% | 77.4% |
| CC(Oc1ccc(NC(=O)c2cccs2)cc1)C(=O)c1ccc(Cl)cc1 (stereo not drawn) | 257 nM | 462 nM | 98.06 ± 0.7% | 17.7% | 30.4% | 47.3% |
| Oc1c(C(Nc2ccccn2)c2cccc(Oc3ccccc3)c2)ccc2cccnc12 (stereo not drawn) | 1080 nM | 852 nM | 99.07 ± 0.26% | 27.1% | 43.9% | 64.8% |
| Oc1ccc(Cl)cc1CNc1nc2ccccc2[nH]1 | 1310 nM | 1420 nM | 96.5 ± 1.9% | 22.5% | 38.5% | 58.6% |
| O=C1c2ccc3c4c(ccc(c24)C(=O)N1CCCCO)C(=O)N(CCCCO)C3=O | 421 nM | 4810 nM | 99.55 ± 0.29% | 9.23% | 16.9% | 64.2% |
| O=c1c2c([nH]c3ccccc13)CCCC2 | 1040 nM | 1790 nM | 89.6 ± 1.1% | 13.7% | 22.2% | 42.9% |
| O=C(NCCCN1CCC(N2CCCCC2)CC1)C1=Cc2cc(Br)ccc2OC1 | 2690 nM | 348 nM | 88.9 ± 1.1% | 27% | 57.9% | 66.7% |
| CCN(CC)c1ccc(NC(=O)c2cccs2)cc1 | 1650 nM | 2110 nM | 91.4 ± 2.7% | < 0% | 3.66% | 31.7% |
| CC1CC2=C(CC1CNCCCN(C)C)C(C)(C)CCC2 (stereo not drawn) | 3170 nM | 618 nM | 99.59 ± 0.27% | 9.39% | 52.2% | 73.9% |
| O=C1c2ccccc2C2=Nc3ccccc3SC(c3cccc(F)c3)C12 (stereo not drawn) | 916 nM | 283 nM | 99.31 ± 0.18% | 15.1% | 29% | 37.5% |
| CCCCNc1nc(NC(C)(C)C)nc(NC(C)(C)C)n1 | 603 nM | 2760 nM | 93.8 ± 2.5% | 12.2% | 25.9% | 66.4% |
| CN(C)CCCNc1c2ccccc2nc2ccccc12 | 1480 nM | 92.8 nM | 100.3 ± 0.38% | 28.1% | 37.7% | 40.7% |
| COc1ccccc1N1C(=N)SC(=Cc2ccc(OCc3ccccc3F)cc2)C1=O | 978 nM | 4920 nM | 93.42 ± 0.8% | 14.8% | 30.1% | 52.5% |
| CCCCC(O)(c1ccc(Cl)cc1)C(CN1CCOCC1)c1ccc(Cl)cc1 (stereo not drawn) | 5000 nM | 2010 nM | 99.1 ± 0.71% | 21% | 18.3% | 40.5% |
| Cc1ccc(C2CC(C(F)(F)F)n3nc(C(=O)N4CCN(C(c5ccccc5)c5ccccc5)CC4)cc3N2)cc1 (stereo not drawn) | 1660 nM | 2040 nM | 99.677 ± 0.058% | < 0% | < 0% | 35.3% |
| CCCCNCC(O)(c1ccc(Cl)cc1)c1ccc(Cl)cc1 | 6550 nM | 527 nM | 97.55 ± 0.55% | 8.52% | 48.1% | 70.3% |
